According to the supplement of paper PMC10307832:

Experiments:
Test in all cases: relative viability (nuclei count vs DMSO), 5 days (fraction); higher = more cells survive
Darinaparsin + OSI-027 = compound: C[As](C)SC[C@H](NC(=O)CC[C@H](N)C(=O)O)C(=O)NCC(=O)O [Darinaparsin] + COc1cccc2cc(-c3nc([C@H]4CC[C@H](C(=O)O)CC4)n4ncnc(N)c34)[nH]c12 [OSI-027] (partner 0.5 µM)
Outline: (§1)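 Lung cancer cell lines, seeded in 1536-well plates, were treated the following day by pin tool with a single drug or with five library-drug doses (not always all listed) in √10 steps on top of a fixed anchor-drug dose. Cells were fixed and nuclei stained in one step after 5 days, and nuclei were counted. Relative viability is the nuclei count for treated wells divided by that for vehicle wells, reported as medians of duplicate plates.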

QS11 + Bortezomib = compound: C1CC2=C(C1)C=C(C=C2)OC3=NC(=C4C(=N3)N(C=N4)CC5=CC=C(C=C5)C6=CC=CC=C6)N[C@@H](CC7=CC=CC=C7)CO [QS11] + CC(C)C[C@H](NC(=O)[C@H](Cc1ccccc1)NC(=O)c1cnccn1)B(O)O [Bortezomib] (partner 0.002 µM)
Outline: as §1

AZ628 + Pemetrexed = compound: CC1=C(C=C(C=C1)NC(=O)C2=CC(=CC=C2)C(C)(C)C#N)NC3=CC4=C(C=C3)N=CN(C4=O)C [AZ628] + Nc1nc2[nH]cc(CCc3ccc(C(=O)N[C@@H](CCC(=O)O)C(=O)O)cc3)c2c(=O)[nH]1 [Pemetrexed] (partner 0.2 µM)
Outline: as §1

QS11 + Linsitinib = compound: C1CC2=C(C1)C=C(C=C2)OC3=NC(=C4C(=N3)N(C=N4)CC5=CC=C(C=C5)C6=CC=CC=C6)N[C@@H](CC7=CC=CC=C7)CO [QS11] + C[C@]1(O)C[C@@H](c2nc(-c3ccc4ccc(-c5ccccc5)nc4c3)c3c(N)nccn32)C1 [Linsitinib] (partner 1 µM)
Outline: as §1

Cell Line	relative viability (Darinaparsin + OSI-027; first compound 0.08 µM)	relative viability (Darinaparsin + OSI-027; first compound 0.8 µM)	relative viability (Darinaparsin + OSI-027; first compound 2.53 µM)	relative viability (Darinaparsin + OSI-027; first compound 8 µM)	relative viability (QS11 + Bortezomib; first compound 0.08 µM)	relative viability (QS11 + Bortezomib; first compound 0.253 µM)	relative viability (QS11 + Bortezomib; first compound 0.8 µM)	relative viability (QS11 + Bortezomib; first compound 2.53 µM)	relative viability (QS11 + Bortezomib; first compound 8 µM)	relative viability (AZ628 + Pemetrexed; first compound 0.08 µM)	relative viability (AZ628 + Pemetrexed; first compound 0.253 µM)	relative viability (AZ628 + Pemetrexed; first compound 0.8 µM)	relative viability (AZ628 + Pemetrexed; first compound 2.53 µM)	relative viability (AZ628 + Pemetrexed; first compound 8 µM)	relative viability (QS11 + Linsitinib; first compound 0.08 µM)	relative viability (QS11 + Linsitinib; first compound 0.253 µM)	relative viability (QS11 + Linsitinib; first compound 0.8 µM)	relative viability (QS11 + Linsitinib; first compound 2.53 µM)	relative viability (QS11 + Linsitinib; first compound 8 µM)
NCI-H2126	0.726	0.764	0.635	0.639	1.1	1.07	0.882	1.22	0.904	0.757	0.665	0.586	0.655	0.588	0.71	0.814	0.679	0.683	0.643
PC-14	1.09	0.697	0.704	1.26	0.7	0.887	0.979	0.741	0.731	0.136	0.121	0.105	0.105	0.0944	1.04	1.08	0.758	0.906	0.901
EMC-BAC-2	0.364	0.315	0.405	0.409	1.06	1.05	0.941	0.985	0.677	0.481	0.494	0.476	0.516	0.589	0.825	0.826	0.728	0.815	0.73
HCC-78	0.375	0.394	0.379	0.372	0.478	0.484	0.457	0.486	0.544	0.95	0.905	0.892	0.89	0.915	0.517	0.528	0.463	0.579	0.514
SK-LU-1	0.363	0.299	0.257	0.351	1.03	1.11	1.09	1.16	1.29	0.603	0.973	0.885	1.01	0.66	1.1	1.08	0.989	0.71	0.732
NCI-H23	0.668	0.579	0.669	0.606	1.03	0.926	0.978	0.722	1	0.616	0.464	0.419	0.45	0.396	0.624	0.528	0.561	0.477	0.404
NCI-H2228	0.778	0.5	0.483	0.78	0.974	1.04	1.15	1.26	1.12	0.348	0.296	0.351	0.355	0.234	0.658	0.555	0.809	0.834	0.797
NCI-H441	0.79	0.719	0.555	0.613	0.437	0.536	0.475	0.444	0.299	0.279	0.252	0.235	0.263	0.26	0.519	0.544	0.613	0.561	0.601
NCI-H460	0.98	0.753	0.537	1.19	1.04	1.13	0.819	0.973	0.345	0.0707	0.055	0.0564	0.0595	0.0641	0.874	0.976	0.725	0.479	0.073
LU99A	0.311	0.298	0.337	0.271	0.878	1.37	1.17	1.11	0.706	0.191	0.186	0.215	0.215	0.175	0.529	0.561	0.555	0.465	0.38
UMC-11	0.543	0.529	0.414	0.592	0.668	0.851	0.816	1.01	0.68	0.818	0.799	0.79	0.763	0.814	1.06	1.16	1.08	1.17	1.24
LXF-289	0.849	0.786	0.649	1.02	1	0.996	0.791	0.819	0.614	0.939	0.722	0.893	0.866	0.678	0.977	1.01	0.681	0.896	0.72
NCI-H647	0.625	0.59	0.545	1.08	0.938	0.987	0.976	1.08	0.894	0.201	0.17	0.179	0.161	0.151	1.12	1.21	1.17	1.21	1.23
NCI-H1651	0.78	0.753	0.619	0.822	0.954	1.06	0.804	0.959	0.994	0.632	0.522	0.563	0.711	0.554	1.12	0.987	0.813	0.939	0.581
